Laboratory results from publication PMC6386544 (Infection and Immunity, 2019).
Like-named read-outs stand apart in the source and are kept apart here.

Assays:
ToxB-B2 [1] = molecular target: T1, ToxB-B2 (Clostridioides difficile, UniProt P18177); conditions: glycan 160 nM to 100 μM
T1 construct: gene tcdB

ToxA-B1 [2] = molecular target: T2, ToxA-B1 (Clostridioides difficile, UniProt P16154); conditions: glycan 160 nM to 100 μM
T2 construct: gene tcdA

ToxA-B3 [3] = molecular target: T3, ToxA-B3 (Clostridioides difficile, UniProt P16154); conditions: glycan 160 nM to 100 μM
T3 construct: gene tcdA

ToxB-GT [4] = molecular target: T4, ToxB-GT (Clostridioides difficile, UniProt P18177); conditions: glycan 160 nM to 100 μM
T4 construct: gene tcdB

ToxB-B2 [5] = molecular target: T1, ToxB-B2; assay: biochemical
ToxA-B1 [6] = molecular target: T2, ToxA-B1; assay: biochemical
ToxA-B3 [7] = molecular target: T3, ToxA-B3; assay: biochemical
ToxB-GT [8] = molecular target: T4, ToxB-GT; assay: biochemical
[9] = read-out: Protein binding (KD)^a / ToxB-B2
[10] = read-out: Protein binding (KD)^a / ToxA-B1
[11] = read-out: Protein binding (KD)^a / ToxA-B3

Compound	Kd (ToxB-B2 [1]; [9]) [µM]	Kd (ToxA-B1 [2]; [10]) [µM]	Kd (ToxA-B3 [3]; [11]) [µM]	Kd (ToxB-GT [4]) [µM]	other results
Blood group A	0.0291 ± 0.0075	1.53 ± 0.6	0.0614 ± 0.0296	> 100	–
CC(=O)N[C@H]1[C@H](O[C@H]2[C@@H](O)[C@@H](CO)OC(O)[C@@H]2O)O[C@H](CO)[C@@H](O[C@@H]2O[C@H](CO)[C@H](O)[C@H](O)[C@H]2O)[C@@H]1O[C@@H]1O[C@@H](C)[C@@H](O)[C@@H](O)[C@@H]1O (some centres unmarked) [Lewis X]	0.501 ± 0.308	18.9 ± 5.58	16.5 ± 2.8	> 100	–
Lewis Y	8 ± 0.74	12.7 ± 2.47	55.5 ± 28.8	> 100	–
CC(=O)N[C@H]1[C@H](O[C@H]2[C@@H](O)[C@@H](CO)OC(O)[C@@H]2O)O[C@H](CO)[C@@H](O[C@@H]2O[C@@H](C)[C@@H](O)[C@@H](O)[C@@H]2O)[C@@H]1O[C@@H]1O[C@H](CO)[C@H](O)[C@H](O)[C@H]1O (some centres unmarked) [Lewis A]	0.579 ± 0.037	3.38 ± 0.95	1.65 ± 0.62	> 100	–
C[C@@H]1O[C@@H](O[C@H]2[C@H](O[C@H]3[C@H](O)[C@@H](O)C(O)O[C@@H]3CO)O[C@H](CO)[C@H](O)[C@@H]2O[C@H]2O[C@H](CO)[C@H](O)[C@H](O)[C@H]2O)[C@@H](O)[C@H](O)[C@@H]1O (some centres unmarked) [Blood group B]	42.9 ± 59.1	11.4 ± 1.08	14.4 ± 3.2	> 100	–
Man5	–	–	–	> 100	Kd (ToxB-B2 [1]): > 100 µM; Kd (ToxA-B1 [2]): > 100 µM; Kd (ToxA-B3 [3]): > 100 µM
Sialyl-Lewis A	2.39 ± 0.68	71.8 ± 27.1	72.1 ± 31.8	> 100	–
CC(=O)N[C@H]1[C@H](O[C@H]2[C@@H](O)[C@@H](CO)OC(O)[C@@H]2O)O[C@H](CO)[C@@H](O[C@@H]2O[C@@H](C)[C@@H](O)[C@@H](O)[C@@H]2O)[C@@H]1O[C@@H]1O[C@H](CO)[C@H](O)[C@H](O)[C@H]1O[C@@H]1O[C@@H](C)[C@@H](O)[C@@H](O)[C@@H]1O (some centres unmarked) [Lewis B]	0.395 ± 0.029	–	–	> 100	–
CO[C@H]1O[C@H](CO)[C@@H](O)[C@H](O)[C@@H]1O [α-Methyl-mannose]	–	–	–	–	Kd (ToxB-B2 [5]): 0.315 ± 0.103 µM; Kd (ToxA-B1 [6]): > 100 µM; Kd (ToxA-B3 [7]): > 100 µM; Kd (ToxB-GT [8]): > 100 µM
Blood group H	0.428 ± 0.008	1.22 ± 0.49	–	> 100	Kd (ToxA-B3 [3]): > 100 µM
